The record followed here is PubChem BioAssay (NCI).

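Five concentrations, 48 hours, 96-well plates. Abbreviation: GI50, concentration required for 50% inhibition of growth. TGI: total growth inhibition.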

Some test systems named below: SNB-19 CNS; A498 renal; CAKI-1 renal; EKVX NSCLC; HCT-15 colon; MALME-3M melanoma; SF-268 CNS; COLO 205 colon; HL-60(TB) leukemia; MCF7 breast.
Common to all, as to assay: DTP human tumour cell line panel, 48 h

Take `Nc1nc(/C=C\c2ccc([N+](=O)[O-])s2)nc(N2CCN(c3ccccc3)CC2)n1`: the GI50 in the assay on SNB-19 CNS was 30.5 µM; in the assay with A498 renal, 0.0746 µM; in the assay on CAKI-1 renal, 18.1 µM; in the assay on EKVX NSCLC, 32.2 µM; with HCT-15 colon, 14.6 µM; in the assay with MALME-3M melanoma it was 24.9 µM. In addition, the GI50 in the assay with SF-268 CNS is 27.2 µM; in the assay on COLO 205 colon it was 15.4 µM; in the assay on HL-60(TB) leukemia it was 18.8 µM; with MCF7 breast, 14.8 µM. Besides, the TGI in the assay on SNB-19 CNS was 77 µM; in the assay on A498 renal, 15.5 µM; in the assay on CAKI-1 renal it was 39.1 µM; in the assay on EKVX NSCLC, more than 100 µM; in the assay with HCT-15 colon it was 28.3 µM; in the assay on MALME-3M melanoma it was 59.8 µM. Also, the TGI came out at 80 µM in the assay with SF-268 CNS, 32.1 µM in the assay with COLO 205 colon, 54.2 µM with HL-60(TB) leukemia and 49.4 µM with MCF7 breast.
In the case of `COc1ccc2c(c1)C(=O)c1c-2n(CCCN(C)C)c(=O)c2ccccc12`, the GI50 is 0.264 µM with SNB-19 CNS; 0.377 µM in the assay on A498 renal; 0.243 µM with CAKI-1 renal; 0.645 µM with EKVX NSCLC; 0.25 µM in the assay on HCT-15 colon; 0.483 µM with MALME-3M melanoma. Besides, the GI50 was 0.258 µM in the assay with SF-268 CNS, 0.187 µM in the assay with COLO 205 colon, 0.321 µM in the assay with HL-60(TB) leukemia and 0.0295 µM in the assay with MCF7 breast. The TGI in the assay with SNB-19 CNS turned out to be 3.4 µM; in the assay on A498 renal, 1.72 µM; in the assay with CAKI-1 renal, 4.9 µM; in the assay on EKVX NSCLC, 8.45 µM; in the assay on HCT-15 colon, 3.95 µM; in the assay on MALME-3M melanoma, 2.06 µM. Further, the TGI with SF-268 CNS turned out to be 2.84 µM; with COLO 205 colon it was 2.62 µM; with HL-60(TB) leukemia, 2.64 µM; with MCF7 breast, 2.31 µM.
As for `Fc1ccc(-c2c(-c3ccncc3)nc3n2CCS3)cc1`, the GI50 in the assay on SNB-19 CNS is more than 25 µM; in the assay on A498 renal, more than 15.6 µM; with CAKI-1 renal, more than 25 µM; in the assay on EKVX NSCLC, more than 25 µM; in the assay with HCT-15 colon, more than 25 µM; in the assay on MALME-3M melanoma it was more than 25 µM. Besides, the GI50 with SF-268 CNS, in the assay on COLO 205 colon, in the assay with HL-60(TB) leukemia and with MCF7 breast was more than 25 µM each time. The total growth inhibition concentration (TGI) in the assay with SNB-19 CNS, in the assay on A498 renal, in the assay on CAKI-1 renal, with EKVX NSCLC, in the assay with HCT-15 colon and in the assay on MALME-3M melanoma was more than 25 µM throughout. The TGI in the assay on SF-268 CNS, in the assay on COLO 205 colon, in the assay on HL-60(TB) leukemia and with MCF7 breast was more than 25 µM in each case.
`Cc1cc2c(C(=O)NC[C@H](C)c3ccccc3)c(O)c(O)cc2c(O)c1-c1c(C)cc2c(C(=O)NC[C@H](C)c3ccccc3)c(O)c(O)cc2c1O`: the concentration for 50% growth inhibition (GI50) in the assay on SNB-19 CNS is 0.0605 µM; in the assay with A498 renal, 0.316 µM; with CAKI-1 renal, 0.375 µM; in the assay with EKVX NSCLC it was 0.411 µM; in the assay with HCT-15 colon, 0.208 µM; in the assay on MALME-3M melanoma it was 1.78 µM. Besides, the 50% growth inhibitory concentration (GI50) with SF-268 CNS was 0.234 µM; in the assay with COLO 205 colon it was 0.711 µM; in the assay on HL-60(TB) leukemia it was 0.901 µM; in the assay with MCF7 breast, 0.0685 µM. Besides, the TGI in the assay on SNB-19 CNS amounted to 4.3 µM; with A498 renal, 7.54 µM; with CAKI-1 renal, 10 µM; with EKVX NSCLC it was 8.1 µM; with HCT-15 colon, 12.6 µM; in the assay on MALME-3M melanoma it was 7.23 µM. The concentration for total growth inhibition (TGI) in the assay on SF-268 CNS was 3.7 µM; with COLO 205 colon, 5.83 µM; with HL-60(TB) leukemia it was 8.57 µM; with MCF7 breast, 4.2 µM.
On to `O=C1Nc2c(ccc(Cl)c2Cl)/C1=C/c1cc(Br)c(O)c(Br)c1`, for which the GI50 in the assay on SNB-19 CNS is 4.6 µM; in the assay on A498 renal it was 3.9 µM; with CAKI-1 renal it was 2.59 µM; with EKVX NSCLC it was 4.54 µM; in the assay on HCT-15 colon, 4.65 µM; with MALME-3M melanoma, 2.53 µM. Further, the GI50 was 14.6 µM with SF-268 CNS, 5.05 µM with COLO 205 colon, 3.01 µM in the assay with HL-60(TB) leukemia and 3.4 µM in the assay with MCF7 breast. Besides, the TGI is more than 63.3 µM in the assay on SNB-19 CNS; 23.3 µM with A498 renal; more than 37 µM in the assay with CAKI-1 renal; 97.3 µM with EKVX NSCLC; 35.3 µM in the assay on HCT-15 colon; 32.4 µM with MALME-3M melanoma. Moreover, the TGI in the assay on SF-268 CNS is more than 100 µM; in the assay on COLO 205 colon it was 27.4 µM; with HL-60(TB) leukemia, more than 23.8 µM; in the assay on MCF7 breast, more than 71.9 µM.
Take `Cc1c(-c2cnccn2)ssc1=S`: the TGI in the assay with SNB-19 CNS was more than 100 µM; in the assay with A498 renal it was 59.7 µM; with CAKI-1 renal, more than 100 µM; in the assay on EKVX NSCLC it was 90.9 µM; in the assay on HCT-15 colon it was more than 100 µM; with MALME-3M melanoma, more than 100 µM. Moreover, the TGI in the assay on SF-268 CNS was 99 µM; in the assay with COLO 205 colon, more than 100 µM; in the assay with HL-60(TB) leukemia, more than 77.4 µM; with MCF7 breast, more than 100 µM.
